According to patent publication US8648068B2, “Heterocycloalkyl-containing thienopyrimidines for pharmaceutical compositions” (Boehringer Ingelheim International GmbH, priority 2010, dated 2014):

These compounds were tested against T1, human Mnk2a (Homo sapiens, UniProt Q9HBH9) (assay: Mnk2a in vitro kinase assay (indirect fluorescence polarization)). Conditions: GST-Mnk2a pre-activated with ERK2, 20 μM ATP, 30 μM substrate peptide; read-out: MNK2 IC50.
T1 construct: made in house; host or cells: E. coli BL21 (vector pGEX-4T1)
T1 sequence (Q9HBH9 whole entry): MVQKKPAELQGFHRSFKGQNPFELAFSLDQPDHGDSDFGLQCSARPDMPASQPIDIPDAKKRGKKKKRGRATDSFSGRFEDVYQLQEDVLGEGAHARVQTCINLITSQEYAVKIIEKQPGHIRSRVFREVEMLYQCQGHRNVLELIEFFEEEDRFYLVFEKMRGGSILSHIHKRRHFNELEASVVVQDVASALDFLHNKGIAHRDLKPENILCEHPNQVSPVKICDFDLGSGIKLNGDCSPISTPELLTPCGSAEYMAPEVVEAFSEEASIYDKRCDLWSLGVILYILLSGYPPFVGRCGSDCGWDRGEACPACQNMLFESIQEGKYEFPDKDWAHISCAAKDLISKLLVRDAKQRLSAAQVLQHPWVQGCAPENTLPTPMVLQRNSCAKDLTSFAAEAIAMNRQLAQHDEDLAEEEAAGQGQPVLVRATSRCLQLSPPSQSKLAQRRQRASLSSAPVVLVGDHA
Format: biochemical
Procedure: Inhibitory potency of compounds against Mnk1, Mnk2a and other kinases was assessed with assays based on a format known to those skilled in the art as the indirect (competitive) fluorescence polarization. The assay detection system comprises a small fluorophore-labeled phospho-peptide (termed ligand) bound to a phospho-specific antibody. The product generated by the kinase reaction competes with the ligand for antibody binding. Based on the larger molecular volume of the bound ligand, which results in a lower rotation rate in solution, its emitted light has a higher degree of polarization than the one from the free ligand.
As a source of enzyme, human Mnk1 and human Mnk2a were expressed as GST fusion proteins in E. coli, purified to >80% homogeneity by glutathione affinity chromatography and activated in vitro with pre-activated ERK2. In brief, the open reading frames of human Mnk1 and Mnk2a were amplified from cDNA using the forward/reverse primer pairs
(utilized restriction sites underlined), respectively, and cloned into the BamHI and SalI sites of the vector pGEX-4T1 (Amersham, Sweden, cat. no. 27-4580-01). These constructs allow prokaryotic expression of Mnk1 or Mnk2a as fusion protein with a N-terminal glutathione S-transferase (GST) tag, referred to as GST-Mnk1 or GST-Mnk2a. The following expression and purification procedure was identical for GST-Mnk1 and GST-Mnk2a, referring in general to GST-Mnk, when not distinguishing between the two isoforms. Expression of GST-Mnk was in E. coli BL21 (Merck Biosciences, Germany, cat. no. 69449). Cells were grown in LB-Bouillon (Merck, Germany, cat. no. 1.10285) supplemented with 100 μg/ml ampicillin (Sigma, Germany, cat. no. A9518) at 37° C. When the culture had reached a density corresponding to an A600 of 0.8, an equal volume of ice cold LB/ampicillin was added, the culture transferred to 25° C. and induced for 4 h with 1 mM isopropyl thiogalactoside (IPTG, Roth, Germany, cat. no. 2316.4). Cells harvested by centrifugation were resuspended in 10 ml lysis buffer (50 mM tris(hydroxymethyl)aminomethane hydrochloride (Tris/HCl, Sigma, Germany, cat. no. T5941) pH 7.5, 300 mM sodium chloride (NaCl, Sigma, Germany, cat. no. S7653), 5% (w/v) glycerol (Sigma, Germany, cat. no. G5516), 3 mM DTT dithiotreitol (DTT, Sigma, Germany, cat. no. D9779)) per gram wet weight cell pellet. Lysates were prepared by disruption of cells with a sonifier and subsequent clearing by centrifugation at 38000 g for 45 min at 4° C.
The lysate was applied to a GSTPrep FF 16/10 column (Amersham, Sweden, cat. no. 17-5234-01) equilibrated with lysis buffer. Removal of unbound material was with 3 column volumes (CV) lysis buffer. Elution was with 2 CV of elution buffer (50 mM Tris/HCl pH 7.5, 300 mM NaCl, 5% (w/v) glycerol, 20 mM glutathione (Sigma, Germany, cat. no. G4251)). Peak fractions were pooled and the protein transferred into storage buffer (50 mM Tris/HCl pH 7.5, 200 mM NaCl, 0.1 mM ethylene glycol-bis(2-aminoethylether)-N,N,N′,N′-tetraacetic acid (EGTA, Aldrich, Germany, cat. no. 23, 453-2), 1 mM DTT, 10% (w/v) glycerol, 0.5 M sucrose (Sigma, Germany, cat. no. SO389) by gel filtration on a PD10 desalting column (Amersham, Sweden, cat. no. 17-0851-01). Aliquots were shock frozen in liquid nitrogen and stored at −80° C.
Activation of Mnk1 and Mnk2a was at a concentration of 2.5 μM of either purified GST-Mnk1 or GST-Mnk2a by incubation with 150 nM pre-activated NHis-ERK2 (see ERK2 assay for preparation) and 50 μM adenosine triphosphate (ATP, Sigma, cat. no. A2699) in a buffer comprising 20 mM N-(2-hydroxyethyl)piperazine-N′-(2-ethanesulfonic acid) (HEPES, Fluka, Germany, cat. no 54459)/potassium hydroxide (KOH, Roth, Germany, cat. no 6751.1) pH 7.4, 10 mM magnesium chloride (MgCl2, Sigma, Germany, cat. no. M2670), 0.25 mM DTT, 0.05% (w/v) polyoxyethylene 20 stearylether (Brij 78, Sigma, Germany, cat. no. P4019) (HMDB buffer) for 45 min at 30° C. […]

Compound	IC50
Cc1c(C(=O)NCCCN(C)C)sc2ncnc(Nc3ccc(F)cc3O[C@@H]3CCCN(S(C)(=O)=O)C3)c12 [Example 85]	0.007 µM
Cc1c(C(=O)NCCO)sc2ncnc(Nc3ccc(F)cc3O[C@@H]3CCCN(S(C)(=O)=O)C3)c12 [Example 86]	0.006 µM
Cc1c(C(=O)NCCCN(C)C)sc2ncnc(Nc3ccc(F)cc3O[C@H]3CCCOC3)c12 [Example 87, 4-{4-Fluoro-2-[(S)-(tetrahydro-pyran-3-yl)oxy]-phenylamino}-5-methyl-thieno[2,3-d]pyrimidine-6-carboxylic acid (3-dimethylamino-propyl)-amide]	0.012 µM
Cc1c(C(=O)NCCCN(C)C)sc2ncnc(Nc3ccc(F)cc3O[C@@H]3CCCOC3)c12 [Example 88, 4-{4-Fluoro-2-[(R)-(tetrahydro-pyran-3-yl)oxy]-phenylamino}-5-methyl-thieno[2,3-d]pyrimidine-6-carboxylic acid (3-dimethylamino-propyl)-amide]	0.022 µM
Cc1c(C(N)=O)sc2ncnc(Nc3ccc(F)cc3OC3CCN(S(C)(=O)=O)C3)c12 (stereo not drawn) [Example 89, 4-[4-Fluoro-2-(1-methanesulfonyl-pyrrolidin-3-yloxy)-phenylamino]-5-methyl-thieno[2,3-d]pyrimidine-6-carboxylic acid amide]	0.008 µM
CNC(=O)c1sc2ncnc(Nc3ccc(F)cc3OC3CCN(S(C)(=O)=O)C3)c2c1C (stereo not drawn) [Example 90]	0.014 µM
Cc1c(C(=O)NC2CCN(C)CC2)sc2ncnc(Nc3ccc(F)cc3OC3CCN(S(C)(=O)=O)C3)c12 (stereo not drawn) [Example 91]	0.051 µM
CONC(=O)c1sc2ncnc(Nc3ccc(F)cc3OC3CCN(S(C)(=O)=O)C3)c2c1C (stereo not drawn) [Example 92]	0.045 µM
Cc1c(C(=O)NO)sc2ncnc(Nc3ccc(F)cc3OC3CCN(S(C)(=O)=O)C3)c12 (stereo not drawn) [Example 93]	0.019 µM
COCC(=O)N1CCC(Oc2cc(F)ccc2Nc2ncnc3sc(C(N)=O)c(C)c23)C1 (stereo not drawn) [Example 94, 4-{4-Fluoro-2-[1-(2-methoxy-acetyl)-pyrrolidin-3-yloxy]-phenylamino}-5-methyl-thieno[2,3-d]pyrimidine-6-carboxylic acid amide]	0.3 µM
Cc1c(C(N)=O)sc2ncnc(Nc3ccc(F)cc3OC3CCN(C(=O)CN(C)C)C3)c12 (stereo not drawn) [Example 95, 4-{2-[1-(2-Dimethylamino-acetyl)-pyrrolidin-3-yloxy]-4-fluoro-phenylamino}-5-methyl-thieno[2,3-d]pyrimidine-6-carboxylic acid amide]	0.46 µM
CC(=O)N1CC[C@H](Oc2cc(F)ccc2Nc2ncnc3sc(C(N)=O)c(C)c23)C1 [Example 96, 4-[2-((S)-1-Acetyl-pyrrolidin-3-yloxy)-4-fluoro-phenylamino]-5-methyl-thieno[2,3-d]pyrimidine-6-carboxylic acid amide]	1.1 µM
CC(=O)N1CC[C@@H](Oc2cc(F)ccc2Nc2ncnc3sc(C(N)=O)c(C)c23)C1 [Example 98, 4-[2-((R)-1-Acetyl-pyrrolidin-3-yloxy)-4-fluoro-phenylamino]-5-methyl-thieno[2,3-d]pyrimidine-6-carboxylic acid amide]	0.094 µM

The next lines start with the values.

IC50	Compound
0.006 µM	Cc1c(C(N)=O)sc2ncnc(Nc3ccc(F)cc3O[C@@H]3CCN(S(C)(=O)=O)C3)c12 [Example 99, 4-[4-Fluoro-2-((R)-1-methanesulfonyl-pyrrolidin-3-yloxy)-phenylamino]-5-methyl-thieno[2,3-d]pyrimidine-6-carboxylic acid amide]
0.005 µM	Cc1c(C(=O)NC#N)sc2ncnc(Nc3ccc(F)cc3O[C@@H]3CCOC3)c12 [Example 100, (R)—N-cyano-4-(4-fluoro-2-(tetrahydrofuran-3-yloxy)phenylamino)-5-methylthieno[2,3-d]pyrimidine-6-carboxamide]
0.011 µM	Cc1c(C(=O)NS(C)(=O)=O)sc2ncnc(Nc3ccc(F)cc3O[C@@H]3CCOC3)c12 [Example 101, N-(4-{4-Fluoro-2-[(R)-(tetrahydro-furan-3-yl)oxy]-phenylamino}-5-methyl-thieno[2,3-d]pyrimidine-6-carbonyl)-methanesulfonamide]
0.032 µM	CONC(=O)c1sc2ncnc(Nc3ccc(F)cc3O[C@@H]3CCOC3)c2c1C [Example 102, 4-{4-Fluoro-2-[(R)-(tetrahydro-furan-3-yl)oxy]-phenylamino}-5-methyl-thieno[2,3-d]pyrimidine-6-carboxylic acid methoxy-amide]
0.026 µM	Cc1c(C(=O)NCCCN(C)C)sc2ncnc(Nc3ccc(F)cc3O[C@@H]3CCOC3)c12 [Example 103, 4-{4-Fluoro-2-[(R)-(tetrahydro-furan-3-yl)oxy]-phenylamino}-5-methyl-thieno[2,3-d]pyrimidine-6-carboxylic acid (3-dimethylamino-propyl)-amide]
0.012 µM	Cc1c(C(N)=O)sc2ncnc(Nc3ccc(F)cc3O[C@@H]3CCOC3)c12 [Example 104]
0.02 µM	Cc1c(C(=O)NCC2CN(C)CCO2)sc2ncnc(Nc3ccc(F)cc3O[C@@H]3CCOC3)c12 (stereo partly drawn) [Example 105]
0.025 µM	Cc1c(C(=O)NCCCN2CCCC2)sc2ncnc(Nc3ccc(F)cc3O[C@@H]3CCOC3)c12 [Example 106]
0.026 µM	Cc1c(C(=O)NC2CC2)sc2ncnc(Nc3ccc(F)cc3O[C@@H]3CCOC3)c12 [Example 107]
0.026 µM	Cc1c(C(=O)NCCCN(C)C)sc2ncnc(Nc3ccc(F)cc3O[C@H]3CCOC3)c12 [Example 108, 4-{4-Fluoro-2-[(S)-(tetrahydro-furan-3-yl)oxy]-phenylamino}-5-methyl-thieno[2,3-d]pyrimidine-6-carboxylic acid (3-dimethylamino-propyl)-amide]
0.009 µM	Cc1c(C(N)=O)sc2ncnc(Nc3ccc(F)cc3O[C@H]3CCOC3)c12 [Example 109]
0.021 µM	Cc1c(C(=O)NCC2CN(C)CCO2)sc2ncnc(Nc3ccc(F)cc3O[C@H]3CCOC3)c12 (stereo partly drawn) [Example 110]
0.022 µM	Cc1c(C(=O)NCCCN2CCCC2)sc2ncnc(Nc3ccc(F)cc3O[C@H]3CCOC3)c12 [Example 111]
0.021 µM	Cc1c(C(=O)NC2CC2)sc2ncnc(Nc3ccc(F)cc3O[C@H]3CCOC3)c12 [Example 112]
0.42 µM	Cc1c(C(N)=O)sc2ncnc(Nc3ccc(F)cc3O[C@H]3C[C@@H](CO)N(S(C)(=O)=O)C3)c12 [Example 113, 4-[4-Fluoro-2-((3S,5S)-5-hydroxymethyl-1-methanesulfonyl-pyrrolidin-3-yloxy)-phenylamino]-5-methyl-thieno[2,3-d]pyrimidine-6-carboxylic acid amide]
0.55 µM	COC(=O)c1sc2ncnc(Nc3ccc(F)cc3O[C@H]3C[C@H]4COC(=O)N4C3)c2c1C [Example 114, 4-[4-Fluoro-2-((6S,7aS)-3-oxo-tetrahydro-pyrrolo[1,2-d]oxazol-6-yloxy)-phenylamino]-5-methyl-thieno[2,3-d]pyrimidine-6-carboxylic acid methyl ester]
0.1 µM	Cc1c(C(N)=O)sc2ncnc(Nc3ccc(F)cc3O[C@@H]3CN[C@H](CO)C3)c12 [Example 115, 4-[4-Fluoro-2-((3S,5S)-5-hydroxymethyl-pyrrolidin-3-yloxy)-phenylamino]-5-methyl-thieno[2,3-d]pyrimidine-6-carboxylic acid amide]
